Laboratory results from patent US10159675B2, “Cycling therapy using 3-(5-amino-2-methyl-4-oxo-4H-quinazolin-3-yl)-piperidine-2,6-dione” (Celgene Corporation, priority 2015, dated 2018).

Experiments:
[1] = tested on: Human CD34+ bone marrow cells; assay: In vitro myeloid differentiation assay; assay type: cell-based; design: dose or concentration left out as unconfirmed; conditions: after 14 days
Method: Human CD34+ bone marrow cells were seeded in stem cell factor, Fms-like tyrosine kinase 3 ligand (F1t3L) and granulocyte colony-stimulating factor (G-CSF), followed by 6 days with media plus G-CSF. Compound 1 […] was added continuously or on a 5-of-7-day (5/7 d) schedule. After 14 days, myeloid maturation stages were measured by CD34, CD33, and CD11b flow cytometry.

[2] = tested on: patients with relapsed or refractory DLBCL; assay: Clinical study: response (International Workshop criteria for NHL), by schedule and biomarker; assay type: in vivo, human
Method: (§1) Sample Analysis • Aiolos was measured by flow cytometry on samples of whole blood drawn at 0 hours (pre-dose) and at 1.5 and 5 hours post-dose on cycle 1, day 1 • Archival or screening formalin-fixed paraffin-embedded (FFPE) tissues were stained for MYC and BCL2 expression6 on a Bond-Max automated slide stainer (Leica Microsystems, Buffalo Grove, Ill.) • Pathology review was performed on a hematoxylin and eosin stained slides to identify the area of DLBCL • RNA extraction and NanoString nCounter Analysis System lymphoma subtyping test (Seattle, Wash.) were performed as reported previously7 on core needle and excisional biopsy samples • For lymphocyte phenotyping, whole blood was drawn pre-dose (baseline) and 1.5 hours post-dose on cycle 1 day 15, cycle 1 day 22, cycle 2 day 15, and cycle 2 day 22 • Memory T cells ([…]) were measured by flow cytometry.

[3] = tested on: patients with relapsed or refractory DLBCL; assay: Clinical study: dose-limiting toxicities, adverse events, dose modifications
Text: Adverse events (AEs) were graded by NCI CTCAE v4.0, and responses were investigator assessed using International Workshop criteria for NHL.

[4] = tested on: Memory T cells; assay: Clinical study: lymphocyte phenotyping by flow cytometry; assay type: in vivo, human; conditions: cycle 1, day 22, peripheral blood, 5/7 d schedule
Method: as §1

[5] = 4 mg 5/7 d DLBCL-2 cohort (n=17)
[6] = 5 mg 5/7 d DLBCL-2 cohort (n=3)
[7] = AEs occurring in >20% of patients, 3 mg 28/28 d (n = 25)
[8] = AEs occurring in >20% of patients, 4 mg 5/7 d (n = 21)
[9] = Grade 3/4 AEs occurring in >1 patient, 3 mg 28/28 d (n = 25)
[10] = Grade 3/4 AEs occurring in >1 patient, 4 mg 5/7 d (n = 21)

Cc1nc2cccc(N)c2c(=O)n1C1CCC(=O)NC1=O (stereo not drawn) [Compound 1, 3-(5-amino-2-methyl-4-oxo-4H-quinazolin-3-yl)-piperidine-2,6-dione]
decreased mature neutrophils compared with vehicle ([1]; continuous exposure): 90%
decreased mature neutrophils ([1]; exposure for 5/7 d): 50%
complete responses [CR] ([2]; 3 mg 28/28 d cohort (n=22)): 2
overall response rate (ORR) ([2]; 3 mg 28/28 d cohort (n=22)): 27%
partial responses [PR] ([2]; 3 mg 28/28 d cohort (n=22)): 4
CR [2, 5]: 2
ORR [2, 5]: 39%
PR [2, 5]: 5
CR [2, 6]: 1
ORR [2, 6]: 100%
PR [2, 6]: 2
PFS ([2]; Cell of Origin ABC): 99 days
PFS ([2]; Cell of Origin GCB): 100 days
ORR ([2]; Cell of Origin Non-ABC): 8/27 (30%)
PFS ([2]; Cell of Origin Non-ABC): 64 days
ORR ([2]; Cell of Origin Non-GCB): 6/18 (33%)
PFS ([2]; Cell of Origin Non-GCB): 74 days
PFS ([2]; Cell of Origin Unclassified): 51 days
PFS ([2]; MYC/BCL2 dual expressor Negative): 70 days
PFS ([2]; MYC/BCL2 dual expressor Positive): 100 days
Relative dose intensity (median) ([3]; 3 mg 28/28 d (daily continuously, n = 25)): 78.6%
DLTs (kind): febrile neutropenia ([3]; 3 mg qd): Grade 3 febrile
DLTs (kind): neutropenia ([3]; 3 mg qd): Grade 4
DLTs (kind): sepsis ([3]; 3 mg qd): Grade 4 sepsis
AE asthenia, patients ([3]; 4 mg 5/7 d): 29%
AE constipation, patients ([3]; 4 mg 5/7 d): 29%
AE neutropenia, patients ([3]; 4 mg 5/7 d): 52%
AE pyrexia, patients ([3]; 4 mg 5/7 d): 57%
DLTs (kind): neutropenia ([3]; 4 mg 5/7 d): Grade 4
serious treatment-related AE neck pain ([3]; 4 mg 5/7 d): 5%
serious treatment-related AE pneumonia ([3]; 4 mg 5/7 d): 5%
serious treatment-related AE pneumonitis ([3]; 4 mg 5/7 d): 5%
Relative dose intensity (median) ([3]; 4 mg 5/7 d (n = 21)): 97.5%
DLTs reported ([3]; 4 mg 5/7 d, DLBCL-2 expansion, 19 DLT-evaluable patients): No DLTs
dose-limiting toxicities during cycle 1 ([3]; 4 mg, 21/28 d cohort (n=3)): no dose-limiting toxicities
patients requiring subsequent dose reduction due to grade 4 neutropenia ([3]; 4 mg, 21/28 d cohort (n=3)): 3 patients
DLTs (kind): febrile neutropenia ([3]; 5 mg 5/7 d): Grade 3
DLTs (kind): pneumonitis ([3]; 5 mg 5/7 d): Grade 3
MTD ([3]; 5/7 d schedule): 4 mg
NTD ([3]; 5/7 d schedule): 5 mg
severity of neutropenia ([3]; 5/7 d schedule (FIG. 2)): mitigated
non-tolerated dose (NTD) ([3]; 21/28 d schedule): 4 mg
Anemia [3, 7]: 13 (52) n (%)
Appetite [3, 7]: 1 (4) n (%)
Arrhythmia [3, 7]: 0 n (%)
Asthenia [3, 7]: 14 (56) n (%)
Constipation [3, 7]: 4 (16) n (%)
Cough [3, 7]: 10 (40) n (%)
Decreased [3, 7]: 3 (12) n (%)
Diarrhea [3, 7]: 5 (20) n (%)
Dyspnea [3, 7]: 4 (16) n (%)
Nausea [3, 7]: 4(16) n (%)
Neutropenia [3, 7]: 19 (76) n (%)
Peripheral edema [3, 7]: 7 (28) n (%)
Pyrexia [3, 7]: 10 (40) n (%)
Thrombocytopenia [3, 7]: 9 (36) n (%)
Vomiting [3, 7]: 4 (16) n (%)
Anemia [3, 8]: 5 (24) n (%)
Appetite [3, 8]: 3 (14) n (%)
Arrhythmia [3, 8]: 2 (10) n (%)
Asthenia [3, 8]: 6 (29) n (%)
Constipation [3, 8]: 6 (29) n (%)
Cough [3, 8]: 2 (10) n (%)
Decreased [3, 8]: 3 (14) n (%)
Diarrhea [3, 8]: 3 (14) n (%)
Dyspnea [3, 8]: 5 (24) n (%)
Nausea [3, 8]: 5 (24) n (%)
Neutropenia [3, 8]: 11 (52) n (%)
Peripheral edema [3, 8]: 4 (19) n (%)
Pyrexia [3, 8]: 12 (57) n (%)
Thrombocytopenia [3, 8]: 5 (21) n (%)
Vomiting [3, 8]: 5 (24) n (%)
DLTs, n (%) ([3]; DLBCL-2, 4 mg 5/7 d, 19 DLT evaluable): 0 n (%)
DLTs, n (%) ([3]; DLBCL-2, 4 mg 21/28 d, 3 DLT evaluable): 0 n (%)
DLTs, n (%) ([3]; DLBCL-2, 5 mg 5/7 d, 5 DLT evaluable): 2 (40) n (%)
Anemia [3, 9]: 3 (12) n (%)
Appetite [3, 9]: 0 n (%)
Arrhythmia [3, 9]: 0 n (%)
Asthenia [3, 9]: 5 (20) n (%)
Constipation [3, 9]: 0 n (%)
Cough [3, 9]: 0 n (%)
Decreased [3, 9]: 0 n (%)
Diarrhea [3, 9]: 0 n (%)
Dyspnea [3, 9]: 0 n (%)
Nausea [3, 9]: 0 n (%)
Neutropenia [3, 9]: 16 (64) n (%)
Peripheral edema [3, 9]: 0 n (%)
Pyrexia [3, 9]: 0 n (%)
Thrombocytopenia [3, 9]: 3 (12) n (%)
Vomiting [3, 9]: 0 n (%)
Anemia [3, 10]: 0 n (%)
Appetite [3, 10]: 0 n (%)
Arrhythmia [3, 10]: 2 (7) n (%)
Asthenia [3, 10]: 0 n (%)
Constipation [3, 10]: 0 n (%)
Cough [3, 10]: 0 n (%)
Decreased [3, 10]: 0 n (%)
Diarrhea [3, 10]: 0 n (%)
Dyspnea [3, 10]: 0 n (%)
Nausea [3, 10]: 0 n (%)
Neutropenia [3, 10]: 8 (38) n (%)
Peripheral edema [3, 10]: 0 n (%)
Pyrexia [3, 10]: 0 n (%)
Thrombocytopenia [3, 10]: 0 n (%)
Vomiting [3, 10]: 0 n (%)
DLTs, n (%) ([3]; NHL-1, 3 mg qd, 18 DLT evaluable): 3 (17) n (%)
median increase from baseline in cytotoxic memory T cells [4]: 266%
median increase from baseline in helper memory T cells [4]: 75%
